The test system of this test is HBV. Kind of test: HBV replication inhibition assay (BDNA assay) in HepG2.2.15 cells. It counts as cell-based, Hepatitis B virus. As to conditions: 6 days, encapsidated HBV DNA in supernatant. Here is the method:
HBV replication inhibition by the disclosed compounds were determined in cells infected or transfected with HBV or cells with stably integrated HBV, such as HepG2.2.15 cells (Sells et al. 1987). In this example, HepG2.2.15 cells were maintained in cell culture medium containing 10% fetal bovine serum (FBS), Geneticin, L-glutamine, penicillin and streptomycin. HepG2.2.15 cells were seeded in 96-well plates at a density of 40,000 cells/well and were treated with serially diluted compounds at a final DMSO concentration of 0.5% either alone or in combination by adding drugs in a checker box format. Cells were incubated with compounds for three days, after which medium was removed and fresh medium containing compounds was added to cells and incubated for another three days. At day 6, supernatant was removed and treated with DNase at 37° C. for 60 minutes, followed by enzyme inactivation at 75° C. for 15 minutes. Encapsidated HBV DNA was released from the virions and covalently linked HBV polymerase by incubating in lysis buffer (Affymetrix QS0010) containing 2.5 μg proteinase K at 50° C. for 40 minutes. HBV DNA was denatured by addition of 0.2 M NaOH and detected using a branched DNA (BDNA) QuantiGene assay kit according to manufacturer recommendation (Affymetrix). HBV DNA levels were also quantified using qPCR, based on amplification of encapsidated HBV DNA extraction with QuickExtraction Solution (Epicentre Biotechnologies) and amplification of HBV DNA using HBV specific PCR probes that can hybridize to HBV DNA and a fluorescently labeled probe for quantitation. In addition, cell viability of HepG2.2.15 cells incubated with test compounds alone or in combination was determined by using CellTitre-Glo reagent according to the manufacturer protocol (Promega). The mean background signal from wells containing only culture medium was subtracted from all other samples, and percent inhibition at each compound concentration was calculated by normalizing to signals from HepG2.2.15 cells treated with 0.5% DMSO using equation E1.
% inhibition(DMSOave−Xi)DMSOave×100% E1:
where DMSOave is the mean signal calculated from the wells that were treated with DMSO control (0% inhibition control) and Xi is the signal measured from the individual wells. EC50 values, effective concentrations that achieved 50% inhibitory effect, were determined by non-linear fitting using Graphpad Prism software (San Diego, Calif.) and equation E2.
Y=Ymin+(Ymax−Ymin)/(1+10(Log EC50−X)×HillSlope) E2:
where Y represents percent inhibition values and X represents the logarithm of compound concentrations.
Selected disclosed compounds were assayed in the HBV replication assay (BDNA assay), as described above, and a representative group of these active compounds is shown in Table 5.

Where [1] appears, read: Hepatitis B virus, HepG2.2.15, 144 h.

The structures appear in SMILES notation.

Usually EC50 stands for the concentration that produces a half-maximal response. Take `O=C(Nc1ccnc(C(F)F)c1F)N1CCc2nn3c(c2C1)C(F)(F)CCC(O)(COCC(F)F)C3` (single isomer, unassigned) [Example 36, (S*)-8-((2,2-Difluoroethoxy)methyl)-N-(2-(difluoromethyl)-3-fluoropyridin-4-yl)-11,11-difluoro-8-hydroxy-3,4,8,9,10,11-hexahydro-1H-pyrido[4′,3′:3,4]pyrazolo[1,5-a]azepine-2(7H)-carboxamide]: the 50% effective concentration (EC50) was determined as 39 nM.
Same read-out and setting: under `O=C(Nc1ccnc(Br)c1F)N1CCc2nn3c(c2C1)C(F)(F)CCC(O)(CF)C3` (single isomer, unassigned) [Example 39, (R*)—N-(2-Bromo-3-fluoropyridin-4-yl)-11,11-difluoro-8-(fluoromethyl)-8-hydroxy-3,4,8,9,10,11-hexahydro-1H-pyrido[4′,3′:3,4]pyrazolo[1,5-a]azepine-2(7H)-carboxamide] stands 144 nM; under `N#CCC1(O)CCC(F)(F)c2c3c(nn2C1)CCN(C(=O)Nc1ccnc(Br)c1F)C3` (single isomer, unassigned) [Example 41, (R*)—N-(2-Bromo-3-fluoropyridin-4-yl)-8-(cyanomethyl)-11,11-difluoro-8-hydroxy-3,4,89,10,11-hexahydro-1H-pyrido[4′,3′:3,4]pyrazolo[1,5-a]azepine-2(7H)-carboxamide], 52 nM; under `N#CCC1(O)CCC(F)(F)c2c3c(nn2C1)CCN(C(=O)Nc1ccnc(C(F)F)c1F)C3` (single isomer, unassigned) [Example 42, (R*)-8-(Cyanomethyl)-N-(2-(difluoromethyl)-3-fluoropyridin-4-yl)-11,11-difluoro-8-hydroxy-3,4,89,10,11-hexahydro-1H-pyrido[4′,3′:3,4]pyrazolo[1,5-a]azepine-2(7H)-carboxamide], 163 nM.
Take `N#CCC1(O)CCC(F)(F)c2c3c(nn2C1)CCN(C(=O)Nc1ccnc(Br)c1F)C3` (single isomer, unassigned) [Example 43, (S*)—N-(2-Bromo-3-fluoropyridin-4-yl)-8-(cyanomethyl)-11,11-difluoro-8-hydroxy-34,89,10,11-hexahydro-1H-pyrido[4′,3′:3,4]pyrazolo[1,5-a]azepine-2(7H)-carboxamide]: the EC50 was 282 nM.
As for `N#CCC1(O)CCC(F)(F)c2c3c(nn2C1)CCN(C(=O)Nc1ccnc(C(F)F)c1F)C3` (single isomer, unassigned) [Example 44, (S*)-8-(Cyanomethyl)-N-(2-(difluoromethyl)-3-fluoropyridin-4-yl)-11,11-difluoro-8-hydroxy-3,4,8,9,10,11-hexahydro-1H-pyrido[4′,3′:3,4]pyrazolo[1,5-a]azepine-2(7H)-carboxamide], the 50% effective concentration (EC50) is 333 nM.
Still for that read-out and setting: the figure for `O=C(Nc1ccnc(Br)c1F)N1CCc2nn3c(c2C1)C(F)(F)CCC(F)(CO)C3` (single isomer, unassigned) [Example 47, (S*)—N-(2-Bromo-3-fluoropyridin-4-yl)-8,11,11-trifluoro-8-(hydroxymethyl)-3,4,8,9,10,11-hexahydro-1H-pyrido[4′,3′:3,4]pyrazolo[1,5-a]azepine-2(7H)-carboxamide] is 156 nM.
As to `O=C(Nc1ccnc(Br)c1F)N1CCc2nn3c(c2C1)C(F)(F)CCC(F)(CO)C3` (single isomer, unassigned) [Example 48, (R*)—N-(2-Bromo-3-fluoropyridin-4-yl)-8,11,11-trifluoro-8-(hydroxymethyl)-3,4,8,9,10,11-hexahydro-1H-pyrido[4′,3′:3,4]pyrazolo[1,5-a]azepine-2(7H)-carboxamide], the EC50 is 11 nM.
On to `C=CC1(O)CCC(F)(F)c2c3c(nn2C1)CCN(C(=O)Nc1ccc(F)c(C#N)c1)C3` (single isomer, unassigned) [Example 57, (S*)—N-(3-Cyano-4-fluorophenyl)-11,11-difluoro-8-hydroxy-8-vinyl-3,4,8,9,10,11-hexahydro-1H-pyrido[4′,3′:3,4]pyrazolo[1,5-a]azepine-2(7H)-carboxamide], for which the EC50 was found to be 9 nM.
As for `C#CC1(O)CCC(F)(F)c2c3c(nn2C1)CCN(C(=O)Nc1ccc(F)c(C#N)c1)C3` (single isomer, unassigned) [Example 59, (R*)—N-(3-Cyano-4-fluorophenyl)-8-ethynyl-11,11-difluoro-8-hydroxy-3,4,8,9,10,11-hexahydro-1H-pyrido[4′,3′:3,4]pyrazolo[1,5-a]azepine-2(7H)-carboxamide], the EC50 was 5 nM.
Take `C#CC1(O)CCC(F)(F)c2c3c(nn2C1)CCN(C(=O)Nc1ccc(F)c(C#N)c1)C3` (single isomer, unassigned) [Example 60, (S*)—N-(3-Cyano-4-fluorophenyl)-8-ethynyl-11,11-difluoro-8-hydroxy-3,4,8,9,10,11-hexahydro-1H-pyrido[4′,3′:3,4]pyrazolo[1,5-a]azepine-2(7H)-carboxamide]: the EC50 came to 17 nM.
In the case of `CCC1(O)CCC(F)(F)c2c3c(nn2C1)CCN(C(=O)Nc1ccc(F)c(C#N)c1)C3` (single isomer, unassigned) [Example 61, (S*)—N-(3-Cyano-4-fluorophenyl)-8-ethyl-11,11-difluoro-8-hydroxy-3,4,8,9,10,11-hexahydro-1H-pyrido[4′,3′:3,4]pyrazolo[1,5-a]azepine-2(7H)-carboxamide], the concentration for a half-maximal effect (EC50) under setting [1] was 40 nM.
Turning to `CCC1(O)CCC(F)(F)c2c3c(nn2C1)CCN(C(=O)Nc1ccc(F)c(C#N)c1)C3` (single isomer, unassigned) [Example 62, (R*)—N-(3-Cyano-4-fluorophenyl)-8-ethyl-11,11-difluoro-8-hydroxy-3,4,8,9,10,11-hexahydro-1H-pyrido[4′,3′:3,4]pyrazolo[1,5-a]azepine-2(7H)-carboxamide], the EC50 was found to be 42 nM.
Turning to `C#CC1(O)CCC(F)(F)c2c3c(nn2C1)CCN(C(=O)Nc1ccnc(C(F)F)c1F)C3` (single isomer, unassigned) [Example 64, (R*)—N-(2-(Difluoromethyl)-3-fluoropyridin-4-yl)-8-ethynyl-11,11-difluoro-8-hydroxy-3,4,89,10,11-hexahydro-1H-pyrido[4′,3′:3,4]pyrazolo[1,5-a]azepine-2(7H)-carboxamide], the concentration for a half-maximal effect (EC50) under setting [1] came to 143 nM.
With `C#CC1(O)CCC(F)(F)c2c3c(nn2C1)CCN(C(=O)Nc1ccnc(Br)c1F)C3` (single isomer, unassigned) [Example 65, (S*)—N-(2-Bromo-3-fluoropyridin-4-yl)-8-ethynyl-11,11-difluoro-8-hydroxy-3,4,8,9,10,11-hexahydro-1H-pyrido[4′,3′:3,4]pyrazolo[1,5-a]azepine-2(7H)-carboxamide], the concentration giving a half-maximal response (EC50) turned out to be 144 nM.
As for `C#CC1(O)CCC(F)(F)c2c3c(nn2C1)CCN(C(=O)Nc1ccnc(C(F)F)c1F)C3` (single isomer, unassigned) [Example 66, (S*)—N-(2-(Difluoromethyl)-3-fluoropyridin-4-yl)-8-ethynyl-11,11-difluoro-8-hydroxy-3,4,8,9,10,11-hexahydro-1H-pyrido[4′,3′:3,4]pyrazolo[1,5-a]azepine-2(7H)-carboxamide], the EC50 is 149 nM.
On to `C[C@@H]1Cc2nn3c(c2CN1C(=O)Nc1ccc(F)c(C(F)(F)F)c1)C(F)(F)CCC(CO)C3` (single isomer, unassigned) [Example 76, (3R,8S*)-11,11-Difluoro-N-(4-fluoro-3-(trifluoromethyl)phenyl)-8-(hydroxymethyl)-3-methyl-3,4,8,9,10,11-hexahydro-1H-pyrido[4′,3′:3,4]pyrazolo[1,5-a]azepine-2(7H)-carboxamide], for which the EC50 is 5 nM.
